Patent US4387059A, “Ureylenebis substituted (or unsubstituted) phenylene-carbonyl (or sulfonyl)-imino-1,3,5 or 6-naphthalene-trisulfonic acids and salts” (American Cyanamid Company, priority 1981, dated 1983)
Counter-ions that a name gives are not always drawn.

Key:
[1] = tested on: total hemolytic complement activity (human serum); conditions: in vitro and in vivo, Pathol. Biol. 25 (1977); cited from earlier work
human C1 = assay: Test Code 026 (C1 inhibitor): ability of activated human C1 to destroy fluid phase human C2 in the presence of C4; assay type: biochemical; conditions: serial twofold dilution assay, higher well number indicates higher activity
Text: (§1) An active inhibitor protects C2 from C1 and C4; (ii) Test Code 035 (C3-C9 inhibitor)--This test determines the ability of the late components of human complement (C3-C9) to lyse EAC 142 in the presence of appropriate dilutions of the test compound. An active inhibitor protects EAC 142 from lysis by human C3-C9; (iii) Test Code 036 (C-Shunt inhibitor)--In this test human erythrocytes rendered fragile are lysed in autologous serum via the shunt pathway activated by cobra venom factor in the presence of appropriate dilutions of the test compound. Inhibition of the shunt pathway results in failure of lysis; (iv) Cap 50 Test--Here, appropriate amounts of the test compound are added to a pool of guinea pig serum in vitro, after which the complement level is determined in undiluted serum by the serum capillary tube assay of U.S. Pat. No. 3,876,376. The concentration of compound inhibiting 50% is reported; and (v) Guinea Pig Intraperitoneal Test (GPIP)--Guinea pigs weighing about 300 g are dosed intraperitoneally (i.p.) with 200 mg/kg of the test compound dissolved in saline and adjusted to pH 7-8. […] Percent inhibition is calculated by comparison with simultaneous controls. […]

[2] = tested on: late components of human complement (C3-C9); assay: Test Code 035 (C3-C9 inhibitor): lysis of EAC 142 by late components of human complement; assay type: cell-based; conditions: serial twofold dilution assay, higher well number indicates higher activity
Text: as §1

shunt pathway = assay: Test Code 036 (C-Shunt inhibitor): lysis of fragile human erythrocytes in autologous serum via shunt pathway activated by cobra venom factor; assay type: cell-based; conditions: serial twofold dilution assay, higher well number indicates higher activity
Text: as §1

[3] = literature reports; cited from earlier work
complement system = conditions: Br. J. Exp. Pathol. 33: 327 (1952); cited from earlier work
complement = assay: in vivo complement inhibition in guinea pig (GPIP test), capillary complement assay of sera; conditions: Intravenous, i.p. 200 mg/kg

pentosanpolysulfoester
anticomplementary activity (reduction in total hemolytic complement activity) [1]: anticomplementary activity on human serum, both in vitro and in vivo

O=C(Nc1cccc(S(=O)(=O)Nc2cccc(S(=O)(=O)Nc3cccc(S(=O)(=O)Nc4cc(S(=O)(=O)O)cc5cc(S(=O)(=O)O)cc(S(=O)(=O)O)c45)c3)c2)c1)Nc1cccc(S(=O)(=O)Nc2cccc(S(=O)(=O)Nc3cccc(S(=O)(=O)Nc4cc(S(=O)(=O)O)cc5cc(S(=O)(=O)O)cc(S(=O)(=O)O)c45)c3)c2)c1 [8,8'-[Ureylenebis[[[[[[[(m-phenylenesulfonyl)imino]-m-phenylene]sulfonyl]imino]-m-phenylene]sulfonyl]-imino]]-1,3,6-naphthalenetrisulfonic acid, hexasodium salt]
in vitro Activity C1 026* Wells (human C1): +4 Wells
in vitro Activity C-Late 035* Wells [2]: +4 Wells
in vitro Activity C-Shunt Inhibition 036* Wells (shunt pathway): +1 Wells

NC[C@H]1CC[C@H](C(=O)O)CC1 [tranexamic acid]
treatment of hereditary angioneurotic edema [3]: used with success in the treatment of hereditary angioneurotic edema

Nc1ccc2cc(S(=O)(=O)[O-])cc(O)c2c1N=Nc1ccc(NC(=O)Nc2ccc(N=Nc3c(N)ccc4cc(S(=O)(=O)[O-])cc(O)c34)c(S(=O)(=O)[O-])c2)cc1S(=O)(=O)[O-].[Na+].[Na+].[Na+].[Na+] [chlorazol fast pink, 3,3'-ureylenebis[6-(2-amino-8-hydroxy-6-sulfo-1-naphthylazo)benzenesulfonic acid], tetrasodium salt]
anti-complementary effect (complement system): anti-complementary effect

O=C(Nc1ccc(C(=O)Nc2ccc(C(=O)Nc3ccc(C(=O)Nc4cc(S(=O)(=O)O)cc5cc(S(=O)(=O)O)cc(S(=O)(=O)O)c45)c(S(=O)(=O)O)c3)c(S(=O)(=O)O)c2)c(S(=O)(=O)O)c1)Nc1ccc(C(=O)Nc2ccc(C(=O)Nc3ccc(C(=O)Nc4cc(S(=O)(=O)O)cc5cc(S(=O)(=O)O)cc(S(=O)(=O)O)c45)c(S(=O)(=O)O)c3)c(S(=O)(=O)O)c2)c(S(=O)(=O)O)c1 [8,8'-Ureylenebis[tris[(2-sulfo-p-phenylenecarbonyl)imino]]-di-1,3,6-naphthalenetrisulfonic acid, dodecasodium salt]
in vitro Activity C1 026* Wells (human C1): +5 Wells
in vitro Activity C-Late 035* Wells [2]: +2 Wells
in vivo Activity (Guinea Pig) % Inhibition (complement; Time 2 Minutes): 95%
in vivo Activity (Guinea Pig) % Inhibition (complement; Time 30 Minutes): 54%
in vivo Activity (Guinea Pig) % Inhibition (complement; Time 120 Minutes): 14%

heparin
anti-complementary effect (complement system): anti-complementary effect

NCCCCCC(=O)O [epsilon-aminocaproic acid]
treatment of hereditary angioneurotic edema [3]: used with success in the treatment of hereditary angioneurotic edema
